PubChem BioAssay (NCI)
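Results reflect a 48-hour exposure of cells in 96-well plates to compound at five concentrations. Definition used: TGI = concentration required for complete inhibition of growth.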

Experiments:
Assay in all cases: NCI-60 cell line screen, 48 h
[1] = test system: DU-145 prostate
[2] = test system: SN12C renal
[3] = test system: SK-MEL-5 melanoma
[4] = test system: UACC-62 melanoma
[5] = test system: RPMI-8226 leukemia
[6] = test system: KM12 colon
[7] = test system: SF-295 CNS
[8] = test system: RXF 393 renal
[9] = test system: MCF7 breast
[10] = test system: M14 melanoma
[11] = test system: HOP-92 NSCLC
[12] = test system: T-47D breast
[13] = test system: A549 NSCLC
[14] = test system: LOX IMVI melanoma
[15] = test system: PC-3 prostate
[16] = test system: SK-MEL-28 melanoma
[17] = test system: EKVX NSCLC
[18] = test system: HCT-116 colon
[19] = test system: OVCAR-4 ovarian
[20] = test system: MDA-MB-231 breast
[21] = test system: HS 578T breast
[22] = test system: MDA-MB-435
[23] = test system: OVCAR-8 ovarian
[24] = test system: NCI-H460 lung
[25] = test system: ACHN renal
[26] = test system: SNB-75 CNS
[27] = test system: NCI-H226 lung
[28] = test system: SK-MEL-2 melanoma
[29] = test system: NCI-H522 lung
[30] = test system: BT-549 breast
[31] = test system: HL-60(TB) leukemia
[32] = test system: SF-268 CNS
[33] = test system: HOP-62 NSCLC
[34] = test system: NCI/ADR-RES ovarian
[35] = test system: U251 CNS
[36] = test system: K-562 leukemia
[37] = test system: SF-539 CNS
[38] = test system: CCRF-CEM leukemia
[39] = test system: 786-0 renal
[40] = test system: IGROV1 ovarian
[41] = test system: SNB-19 CNS
[42] = test system: HCC-2998 colon
[43] = test system: TK-10 renal
[44] = test system: SK-OV-3 ovarian
[45] = test system: COLO 205 colon
[46] = test system: NCI-H23 lung
[47] = test system: UO-31 renal
[48] = test system: MDA-N
[49] = test system: MOLT-4 leukemia
[50] = test system: MALME-3M melanoma
[51] = test system: HCT-15 colon
[52] = test system: HT29 colon
[53] = test system: OVCAR-3 ovarian
[54] = test system: SR leukemia
[55] = test system: CAKI-1 renal
[56] = test system: SW-620 colon
[57] = test system: UACC-257 melanoma

Measured: TGI

O=C(O)c1ccc(C2=Nc3cccc4cccc(c34)N2)cc1
> 100 µM: [1] | [2] | [3] | [4] | [5] | [6] | [7] | [8] | [9] | [10] | [11] | [12] | [13] | [14] | [15] | [16] | [17] | [18] | [19] | [20] | [21] | [22] | [23] | [24] | [25] | [26] | [27] | [28] | [29] | [30] | [31] | [32] | [33] | [34] | [35] | [36] | [37] | [38] | [39] | [40] | [41] | [42] | [43] | [44] | [45] | [46] | [47] | [48] | [49] | [50] | [51] | [52] | [53] | [54] | [55] | [56] | [57]
